# Patent US8404644B2, “Agents with angiogenic and wound healing activity” (Meat & Livestock Australia Limited, priority 2007, dated 2013)
# Assays:
# rat aortic ring [1] = assay: Rat aortic ring angiogenesis assay (Examples 1 and 2); assay type: cell-based
# Experimental: Rat aorta were removed and cleaned of adhering fatty and connective tissues before being cut into rings of approximately 3 mm width. Fibrinogen was applied to the bottoms of wells of multi-well culture plates and allowed to gel by thrombin action. An aortic ring was then layered on the top of each gel and a further layer of fibrin placed on this. The fibrinogen was prepared in MCDB131 medium (Sigma, United States) supplemented with antibiotics. The double layer of fibrin was then overlaid with MCDB131 medium containing the test extracts. Control wells contained HBSS. Fumagillin (20 μg/mL) was assayed in triplicate as a negative control.
# The gels were incubated at 37° C. in an atmosphere of 3% CO2/97% air. The rings were examined using an inverted microscope and the growth of microvessels from their perimeters is observed. Digital pictures were taken of these every 2 days and the extent of microvessel growth relative to the size of the ring was determined using National Institute of Health (NIH) Image software (National Institutes of Health (NIH), Rockville Pike, Bethesda, Md., United States, and the rate of growth of microvessels was then determined for each well. Each test extract was assayed in triplicate and the mean growth rate was calculated.
# Additional analysis of several of the MLA008E2 fractions was performed using the rat aortic ring assay (in vitro angiogenesis) as described in Example 1.8 and a rat dorsal flap assay (wound healing assay).
# [2] = system: bovine aorta endothelial cells; assay: Endothelial cell migration assay; assay type: cell-based; conditions: compared to the background level of migration (cells and media); 22±1 hour
# Experimental: Bovine aorta where obtained from a local abattoir and clamped at either end. Arterioles were tied off with string. The aorta was washed free of contaminating blood with 2% sucrose solution under sterile conditions. Trypsin was added in PBS buffer and incubated for 30 minutes. The endothelial cell suspension was mixed 1:1 with cell culture media (DMEM containing 20% foetal bovine serum, 2% glutamine and antibiotics). The cells were collected by centrifugation at 960×g for 10 minutes then suspended in media prior to culturing stock cell ampoules. After five cell passages the cells were frozen in 10% DMSO and stored in liquid nitrogen. […] The cells were then harvested for use.
# BD Bioscience angiogenesis cell migration assay 24 well plates (BD Bioscience, Franklin Lakes, N.J., United States) were used as per the manufacturers instructions. The migration plate was kept at −18° C. until required. Briefly, bovine aorta endothelial cells were prepared in DMEM and HEPES pH 7.2 at 2×10^5 cells/mL. A 250 μL volume of the cell suspension (5×10^4 cells) were added to the top chamber. Immediately, 750 μL was added to each of the bottom wells using the sample port to the bottom wells. Samples were prepared by adding the glycoprotein extract to 1 mL of DMEM containing HEPES. The plate was incubated for 22±1 hour at 37° C., 5% CO2 atmosphere. […]
# rat aortic ring [3] = assay: Rat aortic ring angiogenesis assay (Example 4.3); assay type: cell-based, Lewis rat; conditions: for % of Control: microvessel growth; for activity in promoting angiogenesis: summary of second study
# Experimental: Four separate studies were carried out to determine the angiogenic effect of crystallin preparations. Each sample was assayed in triplicate. A positive control (VEGF) and a vehicle control containing PBS was also run in triplicate. […] Preliminary statistical significance was assessed with an independent Student t-test at α<0.05. Graphical representation of averages +/− standard errors were determined.
# The first study investigated the angiogenic potential of bovine fractions prepared by gel filtration analysis as described in Example 3.2. As described in that Example, the alpha fraction contained αA and αB crystallin, the β H fraction contained all β crystallins, the β L1 fractions contained a sub-fraction of beta crystallins and a high content of βB2 crystallin and beta B3 crystallin and the beta L2 fraction contained only βB2 crystallin and βA3 crystallin.
# The second study investigated the angiogenic potential of purified crystallin proteins. Briefly, βB3 crystallin was prepared by heating (97-99° C. for 3 minutes, supernatant collected by centrifugation) and was essentially homogenous. Alpha A crystallin and αB crystallin samples were prepared by ion exchange chromatography as described above and were also essentially homogenous. The Wound Heal 1-3 preparations were also tested in this study.
# The third study investigated the angiogenic potential of ovine crystallin proteins compared to their bovine equivalents. Both bovine and ovine crystallin proteins were purified essentially to homogeneity by RP. HPLC using a C4 column, as described below in Example 5. Homogeneity was confirmed by SDS-PAGE. The effect of elastase I treatment of βB2 crystallin was also investigated by comparing the angiogenic potential of intact βB2 crystallin (i.e. undigested) with elastase I digested βB2 crystallin. Elastase I treatment releases the N-terminal and C-terminal extensions of the crystallin protein leaving a globular protein that is monomeric.
# In the final study, ovine βB2 crystallin was tested alone or in combination with indoleamine 2,3-dioxygenase (IDO) and ovine alpha B crystallin was tested alone or in combination with tryptophan dioxygenase (TDO)
# Briefly, in each study, a single Lewis rat was euthanised and its aorta transferred to a 15 mL Falcon tube containing 10 mL of MCBD-131 medium and stored on ice. After transferring the aorta to a 92×17 mm petri dish containing 10 mL of ice cold MCDB-131, the outer fatty tissue was removed under an Olympus SZ-60 Dissecting microscope. This was undertaken with fibre optic lamp illumination. The aorta was then cut into sequential rings approximately 2 mm in size. Connective tissue was removed with micro scissors and forceps from the outside of the individual rings. Clean rings were stored in a separate petri dish in sterile MCDB-131 medium. Rings were pre-incubated overnight at 37° C. in an atmosphere of 97% air/3% CO2.
# To prepare gel sandwiches, 75 mg of fibrinogen was added to 25 mL MCDB-131 medium and shaken gently on a rocker roller for 5 minutes. 3 ml of MCDB-131/fibrinogen solution was added to a 15 mL Falcon tube, followed by 10 μL of thrombin and quickly mixed. A 0.4 mL volume of this fibrinogen-thrombin solution was added to each well on a 24 well plate, 6 wells at a time. Aortic rings were then placed on the setting gel, pushed gently into the gel and left for 45 minutes. These steps were then repeated so each ring was covered with 0.4 mL of gel. Gels were left to set at room temperature. […] The plate was then placed in incubator (37° C., 97% air/3% CO2).
# Culture plate were examined daily for signs of infection (fungal growth or yellowing of media) in the wells using an inverted microscope. The growth of microvessels from their perimeters was also observed. Digital photographs of each well were taken seven days after plating using a Pixera PVC-100C digital camera mounted on an OLYMPUS CK-12 microscope and stored on a Macintosh Computer. […]
# elastase I = target: T1, elastase I (Sus scrofa, UniProt P00772); assay: Chaperone activity: protection of elastase I from heat denaturation; assay type: biochemical; conditions: boiling water bath for 30 seconds
# T1 construct: purchased Worthington Biochemical Corporation 2280
# T1 sequence (P00772 27-266): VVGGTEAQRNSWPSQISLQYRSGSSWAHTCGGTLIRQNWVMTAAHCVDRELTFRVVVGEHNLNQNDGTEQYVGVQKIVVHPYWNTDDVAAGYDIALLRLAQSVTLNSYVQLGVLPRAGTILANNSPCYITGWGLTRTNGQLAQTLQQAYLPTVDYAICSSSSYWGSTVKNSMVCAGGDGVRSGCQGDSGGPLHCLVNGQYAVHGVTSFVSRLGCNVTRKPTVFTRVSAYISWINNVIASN
# Experimental: Bovine crystallin fractions were tested for ability to protect the proteases elastase I, trypsin and chymotrypsin from heat denaturation. Briefly, the proteases were heated in a boiling water bath for 30 seconds in the presence or absence of the crystallin fractions.
compound,measurement,setting,value
CO[C@@H]1[C@H](OC(=O)/C=C/C=C/C=C/C=C/C(=O)O)CC[C@]2(CO2)[C@H]1[C@@]1(C)O[C@@H]1CC=C(C)C [Fumagillin],Rate of microvessel growth,rat aortic ring [1]; 20 μg/ml,9.462 ± 1.67
same,Mean growth rate,"rat aortic ring [1]; batch 1, 20 μg/ml",9.5 ± 1.7
same,Mean growth rate,"rat aortic ring [1]; batch 2, 40 μg/ml",5.4 ± 1.6
same,Stimulation/inhibition,"rat aortic ring [1]; inhibition vs Control (HBSS), 20 μg/ml",24.07% inhibition
same,Percentage stimulation or inhibition,"rat aortic ring [1]; inhibition, batch 1, 20 μg/ml",24.1% inhibition
same,Percentage stimulation or inhibition,"rat aortic ring [1]; inhibition, batch 2, 40 μg/ml",57.7% inhibition
"N[C@@H](Cc1c[nH]c2ccccc12)C(=O)O [Tryptophan, tryptophan]",endothelial cell migration (in words),[2],able to promote migration of the cells
"Bovine αA crystallin: bovine alpha A crystallin prepared by ion exchange chromatography, essentially homogenous",increase in microvessel growth (stimulatory),"rat aortic ring [3]; second study, 200 μg/mL",8.26%
same,% of Control,"rat aortic ring [3]; second study, 200 μg/mL",108.26%
same,angiogenic activity (in words),rat aortic ring [3]; summary of second and third study,angiogenic
same,activity in promoting angiogenesis,rat aortic ring [3],108%
same,chaperone activity: protection of elastase I from heat denaturation (in words),elastase I,able to protect elastase I from heat inactivation
"Indoleamine 2,3-dioxygenase IDO: tryptophan hydrolyzing enzyme",angiogenic activity (in words),"rat aortic ring [3]; forth study, 100 μg/mL",stimulatory
same,% of Control,"rat aortic ring [3]; forth study, 100 μg/mL",116.4%
VEGF [reference compound],inhibition of microvessel growth,"rat aortic ring [3]; first study, 30 μg/ml, not statistically significant",15.08%
same,% of Control,"rat aortic ring [3]; forth study, 50 μg/mL",113.7%
same,angiogenic effect on microvessel growth (in words),"rat aortic ring [3]; second study, VEGF 50 μg/mL, test samples 200 μg/mL",slight stimulation
same,% of Control,"rat aortic ring [3]; second study, 50 μg/mL",107.08%
same,activity in promoting angiogenesis,rat aortic ring [3]; 50 ng/mL,107%
same,% of Control,"rat aortic ring [3]; third study, 50 μg/mL",113.7%
same,Mean growth rate,"rat aortic ring [1]; batch 2, 40 μg/ml",13.9 ± 0.2
same,Percentage stimulation or inhibition,"rat aortic ring [1]; stimulation, batch 2, 40 μg/ml",11.1% stimulation
